Measured values: patent publication US10881110B2, “Herbicidal compositions comprising isoxazolo[5,4-b]pyridines” (BASF SE, priority 2014, dated 2021)
Read-outs that look alike come from different tables or passages of the source.

How the values were obtained:
Assay in all cases: greenhouse post-emergence herbicidal test
GERDI = format: in vivo, Geranium dissectum; design: key to herbicidal activity against GERDI found: rating on a scale from 0 to 100; conditions: post emergence
How it was run: (§1)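 Each species was sown separately, grown to a height of 1 to 15 cm and then sprayed with water-dispersed components A, B and where relevant C. Growth conditions were 10-25° C or 20-35° C, and percent damage was recorded at 20 days.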

PHACA = format: in vivo
Description: The culture containers used were plastic pots containing medium loamy sand with approximately 4.6% of humus and 69.9% sand as substrate. The seeds of the test plants were sown separately for each species.
For the post-emergence treatment, the test plants were grown to a plant height of from 1 to 15 cm, depending on the plant habit, and only then treated with the active compounds which had been suspended or emulsified in water. To this end, the test plants were either sown directly, and grown in the same containers, or they were first grown separately as seedlings and transplanted into the test containers a few days prior to treatment.
Depending on the species, the plants were kept at 10-25° C. and 20-35° C., respectively.
The test period extended over 1 to 3 weeks. During this time, the plants were tended and their response to the individual treatments was evaluated 20 days after treatment except mentioned otherwise.
Evaluation was carried out using a scale from 0 to 100. 100 means no emergence of the plants, or complete destruction of at least the above-ground parts, and 0 means no damage or normal course of growth.
The respective stated components A and B, and, if appropriate, C, were formulated as a 10% by weight strength emulsion concentrate and, with addition of the amount of solvent system, introduced into the spray liquor used for applying the active compound. In the examples, the solvent used was water.
In the examples below, using the method of S. R. Colby (1967) “Calculating synergistic and antagonistic responses of herbicide combinations”, Weeds 15, p. 22 ff., the value E, which is expected if the activity of the individual active compounds is only additive, was calculated. E=X+Y−(X·Y/100)

MATCH = format: in vivo, Matricaria recutita; design: key to herbicidal activity against MATCH found: rating on a scale from 0 to 100; conditions: post emergence
How it was run: as §1

[1] = I.1 62.5 g/ha, B.95 2 g/ha a.i.
[2] = a.i. g/ha: I.1 31.25, B.67 125, 20 days after treatment
[3] = a.i. g/ha: I.1 31.25, B.67 125, 20 days after treatment, sub-table r36-r43
[4] = a.i. g/ha: I.1 62.5, B.67 125, 20 days after treatment
[5] = application rate a.i.: I.1 62.5 g/ha, B.87 (carfentrazone-ethyl) 1.75 g/ha, alone or as mixture (composition 1.87)
[6] = applied alone at 31.25 g/ha a.i.

## O=C(O)c1cc(C2CC2)nc2onc(C3CC3)c12 [I.1]
GERDI; [1]
  herbicidal activity against GERDI found: 0
GERDI; a.i. g/ha: I.1 7.8, B.67 125, 20 days after treatment
  herbicidal activity against GERDI found: 0%
GERDI; a.i. g/ha: I.1 15.6, B.67 125, 20 days after treatment
  herbicidal activity against GERDI found: 0%
GERDI; a.i. g/ha: I.1 31.25, B.190 62.5, 20 days after treatment
  herbicidal activity against GERDI found: 30%
GERDI; [2]
  herbicidal activity against GERDI found: 30%
GERDI; [3]
  herbicidal activity against GERDI found: 30%
GERDI; [4]
  herbicidal activity against GERDI found: 40%
GERDI; application rate a.i.: I.1 31.25 g/ha, B.100 (isoxaflutole) 12.5 g/ha, alone or as mixture (composition 1.100)
  herbicidal activity against GERDI found: 60
GERDI; application rate a.i.: I.1 31.25 g/ha, B.40 (imazethapyr) 7.5 g/ha, alone or as mixture (composition 1.40)
  herbicidal activity against GERDI found: 30
GERDI; application rate a.i.: I.1 62.5 g/ha, B.100 (isoxaflutole) 12.5 g/ha, alone or as mixture (composition 1.100)
  herbicidal activity against GERDI found: 65
GERDI; application rate a.i.: I.1 62.5 g/ha, B.30 (imazamox) 3.75 g/ha, alone or as mixture (composition 1.030)
  herbicidal activity against GERDI found: 85
GERDI; application rate a.i.: I.1 62.5 g/ha, B.40 (imazethapyr) 7.5 g/ha, alone or as mixture (composition 1.40)
  herbicidal activity against GERDI found: 70
GERDI; [5]
  herbicidal activity against GERDI found: 85
GERDI; application rate a.i.: I.1 125 g/ha, B.113 (glyphosate) 135 g/ha, alone or as mixture (composition 1.113)
  herbicidal activity against GERDI found: 80
GERDI; application rate a.i.: I.1 250 g/ha, B.193 15 g/ha, alone or as mixture (composition 1.193)
  herbicidal activity against GERDI found: 95
GERDI; [6]
  herbicidal activity against GERDI found: 65
GERDI; g/ha a.i.: I.1 31.25, B.52 2.5, mixture 31.25+2.5
  herbicidal activity against GERDI found: 50
GERDI; g/ha a.i.: I.1 62.5, B.52 2.5, mixture 62.5+2.5
  herbicidal activity against GERDI found: 65
GERDI; g/ha a.i.: I.1 125, B.52 2.5, mixture 125+2.5
  herbicidal activity against GERDI found: 65
PHACA; [2]
  herbicidal activity against PHACA found: 0%
PHACA; [4]
  herbicidal activity against PHACA found: 35%
MATCH; Matricaria chamomilla, post-emergence, 480 h, I.1 alone 31.25 g/ha a.i., read-out: herbicidal activity against MATCH found
  pest or weed control at 31.25 g/ha: 0%
MATCH; Matricaria chamomilla, post-emergence, 480 h, I.1 alone 125 g/ha a.i., read-out: herbicidal activity against MATCH found
  pest or weed control at 125 g/ha: 0%
MATCH; Matricaria chamomilla, post-emergence, 480 h, 62.5 g/ha a.i., read-out: herbicidal activity against MATCH found
  pest or weed control at 62.5 g/ha: 50%
MATCH; Matricaria chamomilla, post-emergence, 480 h, I.1 31.25 g/ha a.i., read-out: herbicidal activity against MATCH found
  pest or weed control at 31.25 g/ha: 20%
MATCH; Matricaria chamomilla, post-emergence, 480 h, I.1 62.5 g/ha a.i., read-out: herbicidal activity against MATCH found
  pest or weed control at 62.5 g/ha: 30%
MATCH; Matricaria chamomilla, post-emergence, 480 h, single active, 31.25 g/ha a.i., read-out: herbicidal activity against MATCH found
  pest or weed control at 31.25 g/ha: 15%
MATCH; Matricaria chamomilla, post-emergence, 480 h, single active, 62.5 g/ha a.i., read-out: herbicidal activity against MATCH found
  pest or weed control at 62.5 g/ha: 60%
MATCH; 6 days after treatment, g/ha a.i.: I.1 31.25, naptalam 50, mixture 31.25+50
  herbicidal activity against MATCH found: 0
MATCH; 6 days after treatment, g/ha a.i.: I.1 31.25, naptalam 100, mixture 31.25+100
  herbicidal activity against MATCH found: 0
MATCH; 6 days after treatment, g/ha a.i.: I.1 62.5, naptalam 50, mixture 62.5+50
  herbicidal activity against MATCH found: 10
MATCH; I.1 15.62 g/ha, B.95 1 g/ha a.i.
  herbicidal activity against MATCH found: 10
MATCH; I.1 31.25 g/ha, B.95 1 g/ha a.i.
  herbicidal activity against MATCH found: 10
MATCH; I.1 31.25 g/ha, B.95 2 g/ha a.i.
  herbicidal activity against MATCH found: 10
MATCH; I.1 62.5 g/ha, B.167 62.5 g/ha a.i.
  herbicidal activity against MATCH found: 0
MATCH; I.1 62.5 g/ha, B.167 125 g/ha a.i.
  herbicidal activity against MATCH found: 0
MATCH; [1]
  herbicidal activity against MATCH found: 65
MATCH; a.i. g/ha: I.1 20.8, B.192 62.5, 20 days after treatment
  herbicidal activity against MATCH found: 60%
MATCH; a.i. g/ha: I.1 20.8, B.79 25, 20 days after treatment
  herbicidal activity against MATCH found: 60%
MATCH; [2]
  herbicidal activity against MATCH found: 30%
MATCH; [3]
  herbicidal activity against MATCH found: 30%
MATCH; a.i. g/ha: I.1 31.25, B.69 25, 20 days after treatment
  herbicidal activity against MATCH found: 30%
MATCH; a.i. g/ha: I.1 62.5, B.191 225, 20 days after treatment
  herbicidal activity against MATCH found: 30%
MATCH; [4]
  herbicidal activity against MATCH found: 0%
MATCH; application rate a.i.: I.1 20.8 g/ha, B.107 (topramezone) 6 g/ha, alone or as mixture (composition 1.107)
  herbicidal activity against MATCH found: 60
MATCH; application rate a.i.: I.1 31.25 g/ha, B.87 (carfentrazone-ethyl) 1.75 g/ha, alone or as mixture (composition 1.87)
  herbicidal activity against MATCH found: 35
MATCH; application rate a.i.: I.1 62.5 g/ha, B.84 (paraquat-dichloride) 17.5 g/ha, alone or as mixture (composition 1.84)
  herbicidal activity against MATCH found: 80
MATCH; [5]
  herbicidal activity against MATCH found: 80
MATCH; [6]
  herbicidal activity against MATCH found: 25
MATCH; g/ha a.i.: I.1 31.25, B.24 2, mixture 31.25+2
  herbicidal activity against MATCH found: 25
MATCH; g/ha a.i.: I.1 125, B.24 2, mixture 125+2
  herbicidal activity against MATCH found: 75
MATCH; g/ha a.i.: I.1 125, B.63 0.5, mixture 125+0.5
  herbicidal activity against MATCH found: 75
